Test results taken from US9987264B2, “Method and composition for treating a serotonin receptor-mediated condition” (Vanda Pharmaceuticals Inc., priority 2007, dated 2018).

Experiments:
human 5HT2A receptor = human 5HT2A receptor (Homo sapiens, UniProt P28223); assay: radioligand binding study, human 5HT2A receptor
Source text: In a radioligand binding study, 4-[3-[4-(6-fluoro-1,2,-benzisoxazol-3-yl)-1-piperidinyl]propoxy]-3-methoxy-benzoic acid had the following activity against the human 5HT2A receptor: […]

[1] = DMPK studies, brain radioactivity after [14C]-labelled compound; assay type: in vivo; conditions: rats treated with [14C]-labelled compound
Source text: 4-[3-[4-(6-fluoro-1,2,-benzisoxazol-3 -yl)-1-piperidinyl]propoxyl]-3-methoxy-benzoic acid appears not to cross the blood-brain barrier. Specifically, in DMPK studies using rats treated with [14C] […] Therefore, 4-[3-[4-(6-fluoro-1,2,-benzisoxazol-3-yl)-1-piperidinyl]propoxyl]-3-methoxy-benzoic acid is particularly useful in conditions that are not mediated, to a substantial degree, by receptors in the brain.

platelet rich plasma = assay: platelet aggregation assay (ADP-induced, serotonin-potentiated); assay type: cell-based, albino rabbits; conditions: Oryctolagus cuniculus
Experimental: In this assay, platelet rich plasma was obtained from albino rabbits. Platelet aggregation was induced in the presence of 3 μM adenosine diphosphate (ADP) and was potentiated by the addition of 10 μM serotonin. 4-[3-[4-(6-fluoro-1,2,-benzisoxazol-3-yl)-1-piperidinyl]propoxyl]-3-methoxy-benzoic acid inhibited the platelet aggregation in the presence of serotonin within 5 minutes, by 30, 50, 60, and 79% at the concentrations of 6 μM, 60 μM, 0.6 mM, and 1 mM, respectively.

Chain of human 5HT2A receptor (P28223 whole entry): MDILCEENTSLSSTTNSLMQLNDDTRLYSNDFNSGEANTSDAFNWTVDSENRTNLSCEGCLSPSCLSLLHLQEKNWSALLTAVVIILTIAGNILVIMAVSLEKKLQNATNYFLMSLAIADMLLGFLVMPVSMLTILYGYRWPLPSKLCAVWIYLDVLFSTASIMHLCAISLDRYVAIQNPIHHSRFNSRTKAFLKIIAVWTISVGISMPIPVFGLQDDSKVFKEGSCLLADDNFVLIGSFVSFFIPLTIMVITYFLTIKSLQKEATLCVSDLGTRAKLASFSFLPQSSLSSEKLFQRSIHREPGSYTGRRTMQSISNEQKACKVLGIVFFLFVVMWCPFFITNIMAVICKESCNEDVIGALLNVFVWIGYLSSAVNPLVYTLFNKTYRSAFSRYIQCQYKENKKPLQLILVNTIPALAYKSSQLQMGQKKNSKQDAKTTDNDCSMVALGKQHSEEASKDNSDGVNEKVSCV

Compound | IC50 (human 5HT2A receptor) | Ki (human 5HT2A receptor) | inhibition at 0.03 µM (human 5HT2A receptor) | nH (human 5HT2A receptor) | radioactivity concentrations in the brain [1] | inhibition at 6 µM (platelet rich plasma; 5 min, 6 μM, 3 μM ADP + 10 μM serotonin, within 5 minutes) | inhibition at 60 µM (platelet rich plasma; 5 min, 60 μM, 3 μM ADP + 10 μM serotonin, within 5 minutes) | inhibition at 600 µM (platelet rich plasma; 5 min, 0.6 mM, 3 μM ADP + 10 μM serotonin, within 5 minutes) | inhibition at 1000 µM (platelet rich plasma; 5 min, 1 mM, 3 μM ADP + 10 μM serotonin, within 5 minutes) | inhibition at 100 µM (platelet rich plasma; 100 μM, positive control, same conditions, read-out: inhibitory effect on platelet aggregation)
COc1cc(C(=O)O)ccc1OCCCN1CCC(c2noc3cc(F)ccc23)CC1 [4-[3-[4-(6-fluoro-1,2,-benzisoxazol-3-yl)-1-piperidinyl]propoxy]-3-methoxy-benzoic acid] | 13.7 nM | 3.91 nM | 66% | 1.05 +/− .091 | none of the animals had measurable radioactivity concentrations in the brain | 30% | 50% | 60% | 79% | –
O=C(c1ccc(F)cc1)C1CCN(CCn2c(=O)[nH]c3ccccc3c2=O)CC1 [Ketanserin, reference compound] | – | – | – | – | – | – | – | – | – | 55%
